# Experimental data taken from patent publication US11717536B2, “Treatment for periodontitis” (THE UNIVERSITY OF MELBOURNE, priority 2017, dated 2023).
# Entries after “also recorded” stand apart in the source; their conditions may differ.
# How the values were obtained:
# Leptothrichia shahii = test: Clinical trial: plaque microbial analysis, Leptothrichia shahii; assay type: in vivo; settings: 18.8 mg CPP-ACP sugar-free gum, 20 min six times per day, 14 days, vs no gum chewing; supragingival plaque
# Source text: (§1) Following the completion of the examination and supragingival plaque collection, participants received a supragingival scaling, clean and prophylaxis of all their teeth. At the completion of the last examination for leg 3, each participant received a professional fluoride treatment.
# (§2) Participants had all supragingival plaque collected from the buccal surfaces of their maxillary molars (teeth 17, 16, 26 & 27) with a sterile scaling instrument. The plaque samples from each tooth were placed in separate sterile tubes, to give four samples per participant.
# (§3) Genomic DNA was extracted from the plaque using a combination of mechanical disruption of the cells via a Precellys homogeniser and the chemical extraction and purification of the genomic DNA via the PowerLyzer PowerSoil DNA Isolation Kit (MoBio). Quantitation of the extracted DNA was achieved using a Qubit dsDNA High Sensitivity Assay kit (ThermoFisher), before 5 ng DNA was used as template in a PCR reaction that amplified the V4 variable region of the 16S ribosomal RNA gene and individually barcoded the PCR product from each sample. The barcoded DNA was then sequenced using an Ion Torrent Personal Genome machine and Torrent Suite™ Software (ThermoFisher).
# (§4) Analysis of the resulting sequence of the 16S ribosomal RNA gene enabled identification of the bacterial population present in each sample, down to the species level. […]
# Leptotrichia buccalis = test: Clinical trial: plaque microbial analysis, Leptotrichia buccalis; assay type: in vivo; settings: 18.8 mg CPP-ACP sugar-free gum, 20 min six times per day, 14 days, vs no gum chewing; supragingival plaque
# Source text: as §1, §2, §3, §4
# supragingival plaque = test: Clinical trial: plaque index (Turesky modification of the Quigley-Hein Index); assay type: in vivo, human; settings: CPP-ACP gum (18.8 or 56.4 mg), 14 days, vs no gum chewing; FIG. 1
# Method: Following the completion of the examination and supragingival plaque collection, participants received a supragingival scaling, clean and prophylaxis of all their teeth. At the completion of the last examination for leg 3, each participant received a professional fluoride treatment. Supragingival plaque was assessed using the Turesky modification of the Quigley-Hein Index (Turesky et al 1970 J Periodontol 41(1):41-43). This index is recognised as a reliable estimate of the tooth area covered by plaque and is frequently used for evaluating anti-plaque agents. The plaque index was obtained by adding the scores for each tooth and dividing by the number of surfaces examined. Plaque scores associated with unrestored labial, buccal and lingual surfaces of all teeth, except third molars were assessed. Each surface was assigned a score from 0 to 5.
# [1] = test system: Lactobacillus casei (NCDO 161); test: Six species polymicrobial biofilm in constant-depth film fermenter, species composition: L. casei; assay type: cell-based
# Method: To model supragingival plaque six representative oral bacterial species, Streptococcus sanguinis (NCTC 7863), Streptococcus mutans Ingbritt, Actinomyces naeslundii (NCTC 10301), Veillonella parvula (ATCC 17745), Lactobacillus casei (NCDO 161) and Fusobacterium nucleatum (ATCC 10953) (Table 5) were cultured as a polymicrobial biofilm on a human enamel substratum in a constant-depth film fermenter (CDFF; Cardiff University, UK). The CDFF was housed in a 37° C. incubator under anaerobic conditions which were maintained by a constant flow of 5% CO2 in N2 at 1 L/h. The CDFF contained 15 removable polytetrafluoroethylene (PTFE) pans on a circular platform that was rotated at a constant speed of three rpm. The biofilms were grown on three enamel blocks (see below) in each PTFE pan using an artificial saliva medium (ASM, 2.5 g/L mucin type II (porcine, gastric, Sigma), 2.0 g/L bacteriological peptone (Oxoid), 2.0 g/L tryptone (Oxoid), 1.0 g/L yeast extract (Oxoid), 0.35 g/L NaCl, 0.2 g/L KCl, 0.2 mg/L vitamin K, 1 mg/L haemin and 0.1 g/L cysteine hydrochloride) at a constant flow rate of 30 mL/h. Prior to inoculation, the CDFF pan surfaces were conditioned for 24 h with ASM at a flow rate of 10 mL/h (McBain et al (2003) J Appl Microbiol. 94(4):655-66). In order to mimic in vivo bacterial growth conditions in the oral cavity with dietary sugar intake and to provide a high cariogenic challenge, a 1% (w/v) sucrose solution in ASM was pumped into the CDFF four times a day at four hourly intervals with a flow rate of 30 mL/h for 10 min.
# Three treatments were applied to the polymicrobial biofilms: 290 ppm fluoride with 220 ppm fluoride as SnF2 and 70 ppm fluoride as NaF (referred to as SnF2), 2% CPP-ACP and 2% CPP-ACP-SnF2. These treatments were compared with the control in which the test solution was replaced with ASM. Each treatment was applied using two 10 min pulses of the test solution in ASM with a flow rate of 30 mL/h. The first pulse started 30 min prior to the first sucrose pulse of the morning and the second started 3 h 30 min after the final sucrose pulse of the day.
# On day 6, 12 and 19 after inoculation four pans were removed aseptically from the CDFF and replaced with blank sterile pans. Enamel blocks from the pans were removed for bacterial enumeration and transverse microradiography.
# Planktonic and loosely attached bacterial cells were firstly removed from the enamel blocks by light washing with 100 μL ASM. […]
# For each timepoint, DNA was extracted separately from 8-9 enamel blocks using PowerLyzer® PowerSoil® DNA Isolation Kits (MoBio Laboratories) following the manufacturers “Vacuum Protocol” with a Precellys® bead homogeniser (Bertin Technologies). Samples were quantified using a Qubit™ dsDNA HS assay kit (Life Technologies) before being stored at −80° C. […]
substance,measurement,setting,value
Casein phosphopeptide-amorphous calcium phosphate [CPP-ACP],"% decrease in relative abundance, Leptothrichia shahii",Leptothrichia shahii,73% (p < 0.01)
same,"% decrease in relative abundance, Leptotrichia buccalis",Leptotrichia buccalis,76% (p < 0.05)
same,plaque index,supragingival plaque,did not produce a significant change
same,L. casei as a percentage of total bacteria in the biofilm,"[1]; 19 days, mean ± standard deviation, n = 5-21",0.38 ± 0.23^ac %
same,change in abundance of L. casei relative to the control (in words),"[1]; twice daily treatment, day 19",dramatically decreased; also recorded: suppressed the emergence
same,decrease in relative abundance of L. casei compared with the control,"[1]; twice daily treatment, consistent",> 95%
